Results: PubChem BioAssay AID504713 (Southern Research Specialized Biocontainment Screening …, 2011)
Activity calls are given as the source filed them. How the calls were made is not given here.

Columns and labels:
[1] = mammalian cell cytotoxicity, cytotoxicity control, set 3 (AID 504713); conditions: mammalian cell cytotoxicity, viability, CC50; at 100 µM (top of the series)
[2] = system: mammalian cell cytotoxicity, viability, CC50; assay: as above

Row | SMILES | viability [1] | CC50 [2]
1 | O=C(COc1ccc2c3c(c(=O)oc2c1)CCC3)Nc1nc2ccccc2[nH]1 | 97% (inactive) | –
2 | O=C(Cc1csc(-c2ccccc2F)n1)Nc1nc2ccccc2[nH]1 | 105% (inactive) | –
3 | CCOc1ccc2[nH]ccc2c1 | 97.9% (inactive) | –
4 | CCOC(=O)c1c(C)[nH]c2ccccc12 | 85.7% (inactive) | –
5 | Cc1cc2cc(O)ccc2[nH]1 | 103% (inactive) | –
6 | CCOc1ccc2nc(NC(=O)C3(c4ccccc4)CCCC3)sc2c1 | – | 87.6 µM
7 | CCOc1ccc2nc(NC(=O)c3cnccn3)sc2c1 | 80.3% (inactive) | –
8 | CCCOc1ccc2c(c1)c(C(C)=O)c(C)n2-c1ccccc1 | 97.2% (inactive) | –
9 | Cc1onc(-c2c(Cl)cccc2Cl)c1/C(N)=N/OC(=O)C1CC1 | 107% (inactive) | –
10 | Cc1ccc(OCC(=O)Nc2ccc(Cl)cc2)c(C)c1 | 97.9% (inactive) | –
11 | Cc1ccc(OCC(=O)Nc2nc3ccc(F)cc3s2)cc1 | 103% (inactive) | –
12 | COC(=O)c1c(C)[nH]c2ccc(Cl)cc12 | 80% (inactive) | –
13 | CC(=O)c1c(C)n(-c2cccc(Cl)c2)c2ccc(O)cc12 | 89% (inactive) | –
14 | CCOc1ccc2nc(NC(=O)COc3ccc(Cl)c(C)c3)sc2c1 | 112% (inactive) | –
15 | Cc1ccc(OCC(=O)Nc2cccc3ncccc23)c(C)c1 | 92.8% (inactive) | –
16 | N/C(=N\c1nc2ccccc2o1)NC(=O)c1ccccc1 | – | 19.3 µM
17 | Cc1cc(C)c(OCC(=O)Nc2nc3ccccc3[nH]2)c(C)c1 | 88.5% (inactive) | –
18 | COc1ccc2nc(NC(=O)COc3ccccc3C(C)C)sc2c1 | 89.6% (inactive) | –
19 | COc1ccc(C(=O)Nc2ccc3nc(N4CCCCC4)cc(C)c3c2)c(OC)c1 | 96.5% (inactive) | –
20 | COc1ccc2[nH]c(C)cc2c1 | 103% (inactive) | –
21 | c1ccc(OCc2nnc(-c3ccccc3)o2)cc1 | 95.4% (inactive) | –
22 | COC(=O)c1c(C)[nH]c2ccccc12 | 82.6% (inactive) | –
23 | N/C(=N\c1nc2ccccc2o1)NC(=O)c1ccccc1F | 99.9% (inactive) | –
24 | COc1ccc2nc(NC(=O)COc3ccc(C)cc3)sc2c1 | – | 87.4 µM
25 | Cc1cc(C)c(OCC(=O)Nc2nc3ccccc3s2)c(Cl)c1 | 98.1% (inactive) | –
26 | Cc1ccc(OCC(=O)Nc2ccc3c4c(cccc24)CC3)c(C)c1 | 80.3% (inactive) | –
27 | CCOc1ccc2c(c1)c(C(C)=O)c(C)n2Cc1ccco1 | 97.1% (inactive) | –

Row | SMILES | viability [1] | CC50 [2]
28 | O=C(OC(C(=O)Nc1ccc(Cl)cc1C(F)(F)F)c1ccccc1)C1=COCCO1 (stereo not given) | 84.8% (inactive) | –
29 | CCOc1ccc2c(c1)c(C(C)=O)c(C)n2-c1ccccc1C | – | 90.1 µM
30 | N/C(=N\c1nc2ccccc2o1)NC(=O)c1ccccc1Br | 87% (inactive) | –
31 | N/C(=N\c1nc2cc(Cl)ccc2o1)NC(=O)c1ccccc1 | – | 43.2 µM
32 | S=C(Nc1ccccc1)Nc1ccc(Cl)cn1 | 107% (inactive) | –
33 | Cc1ccc2oc(/N=C(\N)NC(=O)c3ccccc3)nc2c1 | – | 35.1 µM
34 | COc1ccc2nc(NC(=O)COc3c(C)cc(C)cc3C)sc2c1 | 94.5% (inactive) | –
35 | Cc1cc2cc(F)ccc2n1-c1ccccc1 | 93.3% (inactive) | –
36 | COc1cccc(NC(=S)Nc2cc(C)cc(C)n2)c1 | 100% (inactive) | –
37 | O=C(CSc1n[nH]c(=O)n1C1CC1)c1ccc2c(c1)OCCO2 | 104% (inactive) | –
38 | Cc1ccc(C(C)C)c(OCC(=O)Nc2nc3ccccc3s2)c1 | 92% (inactive) | –
39 | O=C(Nc1ccccc1)Nc1csc2ccccc12 | – | 76.6 µM
40 | Cc1ccc(OCC(=O)Nc2nc3c(Cl)cccc3s2)cc1 | 108% (inactive) | –
41 | Cc1ccc2sc(NC(=O)COc3ccccc3)nc2c1C | – | 36.6 µM
42 | CCOc1ccc2c(ccn2-c2ccccc2)c1 | 99.9% (inactive) | –
43 | O=C(Nc1nc2ccccc2[nH]1)c1cc2cc(Br)ccc2o1 | – | 41.7 µM
44 | CCc1ccc2nc(/N=C(\N)NC(=O)c3ccccc3)nc(C)c2c1 | 94.8% (inactive) | –
45 | O=C(COc1cccc2ccccc12)Nc1nc2ccccc2s1 | 82.9% (inactive) | –
46 | CCCN1CC(O)=C(c2nc3ccccc3s2)C1=N | 88.5% (inactive) | –
47 | COc1ccc2nc(NC(=O)COc3ccccc3)sc2c1 | 109% (inactive) | –
48 | CC(=O)Nc1ccc2nc(NC(=O)COc3ccccc3)sc2c1 | 96.2% (inactive) | –
49 | CC(=O)c1c(C)n(-c2ccccc2)c2ccc(O)cc12 | 85% (inactive) | –
50 | Cc1ccccc1OCC(=O)Nc1ncccn1 | 106% (inactive) | –
51 | CCOc1ccc2nc(NC(=O)COc3ccccc3)sc2c1 | 86% (inactive) | –
52 | c1ccc(-c2cc(N3CCOCC3)nc3ccccc23)cc1 | – | 90.8 µM
53 | CC(=O)c1c(C)n(-c2ccccc2)c2ccc(OS(=O)(=O)C(F)(F)F)cc12 | 92.2% (inactive) | –
54 | Cc1cc(C)c(OCC(=O)Nc2nc3ccc(C)cc3s2)c(C)c1 | 97.6% (inactive) | –

Row | SMILES | viability [1] | CC50 [2]
55 | CC(=O)c1c(C)n(-c2ccccc2)c2ccccc12 | 98.2% (inactive) | –
56 | CCOc1ccc2c(c1)cc(C)n2-c1ccccc1 | 95.5% (inactive) | –
57 | Cc1ccc(OCC(=O)Nc2nnn(C)n2)c(C)c1 | 103% (inactive) | –
58 | CC(=O)Nc1ccc2nc(NC(=O)Cc3ccccc3)sc2c1 | 95.1% (inactive) | –
59 | CC(C)Cn1c2c(c(O)c(C(=O)Nc3nccs3)c1=O)CCCC2 | 100% (inactive) | –
60 | CCOC(=O)c1cnc2cc(-c3ccc(C(C)(C)C)cc3)nn2c1N | 94.4% (inactive) | –
61 | COc1ccc2nc(NC(=O)COc3ccc(Cl)cc3)sc2c1 | 95.2% (inactive) | –
62 | CCOc1ccc2c(c1)c(C(C)=O)c(C)n2-c1ccccc1Cl | – | 85.7 µM
63 | CCOC(=O)COc1nc(-c2ccc(Cl)cc2)cc(-c2ccco2)c1C#N | 103% (inactive) | –
64 | CCOc1ccc2[nH]cc(C(=O)OC)c2c1 | 86.9% (inactive) | –
65 | CC(Oc1ccc(Cl)cc1)C(=O)Nc1nc2ccccc2s1 (stereo not given) | – | 92 µM
66 | O=C(O)CCC(=O)Nc1nc2ccccc2s1 | 102% (inactive) | –
67 | N/C(=N\c1nc2ccccc2o1)NC(=O)c1ccc(F)cc1 | – | 57.3 µM
68 | O=C(COC(=O)C1CC1)c1c[nH]c2ccccc12 | 98.9% (inactive) | –
69 | COc1ccc2nc(NC(=O)c3oc4ccccc4c3C)sc2c1 | 94.4% (inactive) | –
70 | O=C(CC12CC3CC(CC(C3)C1)C2)NCc1ccc(F)cc1 | 99.1% (inactive) | –
71 | Cc1ccccc1OCC(=O)Nc1nnn(C)n1 | 95.7% (inactive) | –
72 | CCOc1ccc2nc(NC(=O)COc3ccc(F)cc3)sc2c1 | 103% (inactive) | –
73 | Oc1ccc2[nH]ccc2c1 | 106% (inactive) | –
74 | CC(=O)c1c(C)n(-c2ccccc2C)c2ccc(O)cc12 | 95.5% (inactive) | –
75 | Cc1cc2cc(F)ccc2[nH]1 | 102% (inactive) | –
76 | O=C(COc1ccccc1Cl)Nc1nc2ccccc2s1 | 92.2% (inactive) | –
77 | Cc1cccnc1NC(=S)NC(=O)c1cncc(Br)c1 | 108% (inactive) | –
78 | CC(C)(C)c1ccc(OCC(=O)Nc2nc3ccccc3s2)cc1 | 98.8% (inactive) | –
79 | CCOc1ccc(NC(=O)COc2ccc(C)cc2C)cc1 | 97.5% (inactive) | –
80 | CCOc1ccc2nc(NC(=O)COc3ccc(OC)cc3)sc2c1 | 102% (inactive) | –
81 | O=C(Nc1nc2ccccc2[nH]1)c1ccc(Cl)c(Cl)c1 | 90.6% (inactive) | –

Row | SMILES | viability [1] | CC50 [2]
82 | CC(=O)c1c(C)n(-c2ccc(C)cc2)c2ccc(O)cc12 | 94.9% (inactive) | –
83 | Cc1cc2ccccc2n1-c1ccccc1 | 93.4% (inactive) | –
84 | O=C(COC(=O)C1=COCCO1)Nc1ccc2c(c1)OCO2 | 94.5% (inactive) | –
85 | Cc1ccc(OCC(=O)Nc2cccc3c(NC(=O)COc4ccc(C)cc4C)cccc23)c(C)c1 | 100% (inactive) | –
86 | Cc1ccc(OC(C)C(=O)Nc2ncccn2)c(C)c1 (stereo not given) | 96.2% (inactive) | –
87 | Cc1ccccc1OCC(=O)Nc1ncn[nH]1 | 95.4% (inactive) | –
88 | O=C(COc1ccccc1)Nc1nc2ccccc2s1 | 104% (inactive) | –
89 | COC(=O)c1ccc2nc(NC(=O)COc3ccccc3)sc2c1 | 99.9% (inactive) | –
90 | Cc1cccc(C)c1OCC(=O)Nc1nc2ccccc2s1 | 93.4% (inactive) | –
91 | c1ccc(Nc2ncnc3c2oc2ccccc23)cc1 | 88% (inactive) | –
92 | COc1ccc2c(c1)c(C(C)=O)c(C)n2-c1ccccc1 | 96.1% (inactive) | –
93 | Cc1ccc(OCC(=O)Nc2cccc3ccccc23)c(C)c1 | 93.3% (inactive) | –
94 | N/C(=N\c1nc2ccccc2o1)NC(=O)C1CC1 | 83% (inactive) | –
95 | COc1ccc2c(c1)cc(C)n2-c1ccccc1 | 92.9% (inactive) | –
96 | CCC(CC)c1nnc(NC(=O)c2ccc(N3CCCCC3)c([N+](=O)[O-])c2)s1 | 96.7% (inactive) | –
97 | CCOc1ccc2[nH]c(C)cc2c1 | 93% (inactive) | –
98 | COc1ccc(Cl)cc1C(=O)Nc1nc2ccccc2[nH]1 | – | 60.5 µM
99 | Cc1ccccc1OCC(=O)Nc1noc(-c2ccccc2)n1 | 100% (inactive) | –
100 | CCOc1ccc2nc(NC(=O)Cc3ccc(OC)cc3)sc2c1 | 100% (inactive) | –
101 | O=C(COc1ccc(Cl)cc1)Nc1nc2ccc(F)cc2s1 | 96.1% (inactive) | –
102 | COc1cccc(-c2ccc(-c3noc(-c4ccccc4F)n3)c(OC)n2)c1 | 91.7% (inactive) | –
103 | O=C(Cc1ccccc1Cl)Nc1nc2ccccc2[nH]1 | 100% (inactive) | –
104 | COc1cccc(NC(=O)C2CC2)c1 | 90.2% (inactive) | –
105 | CN(NC(=O)c1c(Cl)cccc1Cl)c1cccc(Cl)n1 | 93.6% (inactive) | –
